Structures can show the parent of a compound that is named as a salt.
Experiments:
[1] = molecular target: T1, CDK2/cyclin A (Homo sapiens, UniProt P24941); experiment: Inhibition of CDK2/cyclin A retinoblastoma kinase activity (Ki; % inhibition); format: biochemical; details: for Ki: apparent Ki, CDK2/cyclin A, Rb substrate
T1 construct: made in house; host or cells: CDK2: insect cells (baculovirus); cyclin A: E. coli
How it was run: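 Apparent Ki values came from fitting concentration-dependent activity data to competitive (or competitive tight-binding) models, and % inhibition from single 30 nM screens of library compounds. Activity was measured as ³²P/³³P incorporation from 25 μM ATP into an Rb substrate by 10 or 19 nM CDK2/delta cyclin A at 30 °C over 60–75 min, pH 7.4.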

[2] = molecular target: T2, human CDK4/cyclin D3 (Homo sapiens, UniProt P11802); experiment: Inhibition of CDK4/cyclin D retinoblastoma kinase activity (Ki; % inhibition); format: biochemical; details: for Ki: apparent Ki, CDK4/cyclin D3, Rb substrate
T2 construct: made in house; host or cells: insect cells co-infected with baculovirus vectors
T2 sequence (P11802 whole entry): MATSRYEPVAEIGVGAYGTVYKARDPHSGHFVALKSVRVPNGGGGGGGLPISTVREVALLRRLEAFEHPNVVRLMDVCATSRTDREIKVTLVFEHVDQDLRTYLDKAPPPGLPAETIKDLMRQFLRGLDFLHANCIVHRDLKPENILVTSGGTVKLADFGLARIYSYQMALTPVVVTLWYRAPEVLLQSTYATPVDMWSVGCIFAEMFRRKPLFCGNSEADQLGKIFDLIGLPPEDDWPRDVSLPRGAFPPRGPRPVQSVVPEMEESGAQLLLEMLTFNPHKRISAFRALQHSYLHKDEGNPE
T2 sequence (P30281 1-264 partner limits assumed): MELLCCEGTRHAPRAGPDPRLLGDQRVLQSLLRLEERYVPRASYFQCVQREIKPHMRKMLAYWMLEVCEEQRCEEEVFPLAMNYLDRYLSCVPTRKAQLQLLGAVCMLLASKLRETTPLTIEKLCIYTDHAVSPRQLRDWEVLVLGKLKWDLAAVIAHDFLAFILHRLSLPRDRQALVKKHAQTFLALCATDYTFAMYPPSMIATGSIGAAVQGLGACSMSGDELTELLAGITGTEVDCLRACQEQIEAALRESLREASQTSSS
How it was run: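 Radiometric filter-binding read-out: Rb residues 386-928 phosphorylated by 5 nM CDK4/cyclin D3(1-264) from baculovirus-infected insect cells, 25 μM ATP, HEPES pH 7.4, 30 °C. Run 20 min, or 60 min for tight-binding inhibitors. Screening at 30 nM theoretical compound; apparent Ki by competitive-inhibition fitting.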

[3] = tested on: HCT-116 cell line; experiment: Inhibition of cell growth, MTT tetrazolium salt assay; format: cell-based; details: for IC50: Homo sapiens, HCT-116, 120 h, MTT, three to five days
How it was run: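 Cells in McCoy's 5A medium were given 4 h before compound addition in 0.5% (v/v) DMSO, then incubated 3–5 days at 37 °C, 5% CO2. After 4 h with 0.2 mg/mL MTT, DMSO-solubilized formazan was read at 540 nm; 50% and 90% growth-inhibitory concentrations came from semi-log plots against vehicle controls.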

[4] = HCT-116 cells, 0.25 μM compound

CDK2 % Inhibition at 0.03 μM ([1]; 0.03 μM compound) [%]	CDK4 % Inhibition at 0.03 μM ([2]; 0.03 μM compound) [%]	Structure (SMILES)	HCT-116 % Inhibition at 0.1 μM ([3]; HCT-116 cells, 0.1 μM compound) [%]	HCT-116 % Inhibition at 0.25 μM [3, 4] [%]	also measured
−2	11	N#CCCN(Cc1cccnc1)C(=O)c1ccc(Nc2nc(N)c(C(=O)c3c(F)cccc3F)s2)cc1 [Example G316]	1	56	–
–	–	C[C@@H](CNC(=O)c1ccc(Nc2nc(N)c(C(=O)c3c(F)cccc3F)s2)cc1)N(C)C [Example A42, 4-[4-Amino-5-(2,6-difluoro-benzoyl)-thiazol-2-ylamino]-N-(2S-dimethylamino-propyl)-benzamide]	–	–	Ki [1]: 165 nM; Ki [2]: 23 nM; IC50 [3]: 150 nM
27	33	Nc1nc(Nc2ccc(C(=O)NCc3ccc(F)c(F)c3)cc2)sc1C(=O)c1c(F)cccc1F [Example G317]	27	87	–
–	–	CCC(COC)NC(=O)c1ccc(Nc2nc(N)c(C(=O)c3c(F)cccc3F)s2)cc1 (stereo not shown) [Example G159]	–	–	CDK2 % Inhibition at 0.03 μM ([1]; at 0.03 μM): 6%; CDK4 % Inhibition at 0.03 μM ([2]; at 0.03 μM): 5%; HCT-116 % Inhibition at 0.1 μM ([3]; HCT-116, at 0.1 μM): 0%; HCT-116 % Inhibition at 0.25 μM ([3]; HCT-116, at 0.25 μM): 74%
–	–	C=CCN1CCN(C(=O)c2ccc(Nc3nc(N)c(C(=O)c4c(F)cccc4F)s3)cc2)CC1 [Example G21]	–	–	CDK2 % Inhibition at 0.03 μM ([1]; at 0.03 μM): 3%; CDK4 % Inhibition at 0.03 μM ([2]; at 0.03 μM): 14%; HCT-116 % Inhibition at 0.25 μM ([3]; HCT-116, at 0.25 μM): 46%
−19	7	CCOc1ccccc1CCNC(=O)c1ccc(Nc2nc(N)c(C(=O)c3c(F)cccc3F)s2)cc1 [Example G380]	26	50	–
−31	−15	Nc1nc(Nc2ccc(C(=O)Nc3cccc(OC(F)(F)F)c3)cc2)sc1C(=O)c1c(F)cccc1F [Example G292]	0	60	–
−1	9	Nc1nc(Nc2ccc(C(=O)Nc3ccon3)cc2)sc1C(=O)c1c(F)cccc1F [Example G213]	16	49	–
−10	13	Nc1nc(Nc2ccc(C(=O)NCCC3OCCO3)cc2)sc1C(=O)c1c(F)cccc1F [Example G342]	20	55	–
–	–	COc1cc(Nc2nc(N)c(C(=O)c3c(F)cccc3F)s2)ccc1C(=O)NC(C)CN(C)C (stereo not shown) [Example A60, 4-[4-Amino-5-(2,6-difluoro-benzoyl)-thiazol-2-ylamino]-N-(2RS-dimethylamino-1-methyl-ethyl)-2-methoxy-benzamide]	–	–	Ki [1]: 91 nM; Ki [2]: 31 nM; IC50 [3]: 200 nM
−21	14	CC(=O)N(C)C1CCN(C(=O)c2ccc(Nc3nc(N)c(C(=O)c4c(F)cccc4F)s3)cc2)C1 (stereo not shown) [Example G348]	23	51	–
29	13	Nc1nc(Nc2ccc(C(=O)NCCc3ccc(F)cc3)cc2)sc1C(=O)c1c(F)cccc1F [Example G355]	28	54	–
2	21	CC(C)NC(=O)CN1CCN(C(=O)c2ccc(Nc3nc(N)c(C(=O)c4c(F)cccc4F)s3)cc2)CC1 [Example G335]	3	42	–
−10	5	CCN(C(=O)c1ccc(Nc2nc(N)c(C(=O)c3c(F)cccc3F)s2)cc1)C1CCCCC1 [Example G312]	8	58	–
10	21	CCCN(CCO)C(=O)c1ccc(Nc2nc(N)c(C(=O)c3c(F)cccc3F)s2)cc1 [Example G233]	16	48	–
17	30	Nc1nc(Nc2ccc(C(=O)NCc3cc(F)ccc3F)cc2)sc1C(=O)c1c(F)cccc1F [Example G309]	5	65	–
–	–	C[C@H](CN(C)C)NC(=O)c1ccc(Nc2nc(N)c(C(=O)c3ccccc3F)s2)cc1 [Example A66, Trifluoroacetic Acid Salt]	–	–	Ki [1]: 18 nM; Ki [2]: 350 nM; IC50 [3]: 120 nM

CDK2 % Inhibition at 0.03 μM ([1]; 0.03 μM compound) [%]	CDK4 % Inhibition at 0.03 μM ([2]; 0.03 μM compound) [%]	Structure (SMILES)	HCT-116 % Inhibition at 0.1 μM ([3]; HCT-116 cells, 0.1 μM compound) [%]	HCT-116 % Inhibition at 0.25 μM [3, 4] [%]	also measured
36	36	Nc1nc(Nc2ccc(C(=O)NCc3ccc(Cl)c(Cl)c3)cc2)sc1C(=O)c1c(F)cccc1F [Example G336]	12	51	–
0	−1	Nc1nc(Nc2ccc(C(=O)N(CCCCO)Cc3ccccc3)cc2)sc1C(=O)c1c(F)cccc1F [Example G351]	24	62	–
–	–	C[C@@H]1CCC[C@H](C)N1CCNC(=O)c1ccc(Nc2nc(N)c(C(=O)c3c(F)cccc3F)s2)cc1 [Example A51]	–	–	Ki [1]: 110 nM; Ki [2]: 7 nM; IC50 [3]: 90 nM
−9	12	Nc1nc(Nc2ccc(C(=O)Nc3ccc(Cl)nc3)cc2)sc1C(=O)c1c(F)cccc1F [Example G281]	6	63	–
−15	5	C=CCN(C(=O)c1ccc(Nc2nc(N)c(C(=O)c3c(F)cccc3F)s2)cc1)C1CCCCC1 [Example G320]	12	46	–
–	–	Nc1nc(Nc2ccc(C(=O)NCCCN3CCCCC3)cc2)sc1C(=O)c1c(F)cccc1F [Example G128]	–	–	CDK2 % Inhibition at 0.03 μM ([1]; at 0.03 μM): 15%; CDK4 % Inhibition at 0.03 μM ([2]; at 0.03 μM): 41%; HCT-116 % Inhibition at 0.1 μM ([3]; HCT-116, at 0.1 μM): 23%; HCT-116 % Inhibition at 0.25 μM ([3]; HCT-116, at 0.25 μM): 78%
−5	10	CC(=O)c1ccc(NC(=O)c2ccc(Nc3nc(N)c(C(=O)c4c(F)cccc4F)s3)cc2)cc1 [Example G310]	14	53	–
–	–	Cn1cnc(CNC(=O)c2ccc(Nc3nc(N)c(C(=O)c4c(F)cccc4F)s3)cc2)c1 [Example A63, 4-[4-Amino-5-(2,6-difluoro-benzoyl)-thiazol-2-ylamino]-N-(1-methyl-imidazol-4-yl-methyl)-benzamide Trifluoroacetic Acid Salt]	–	–	Ki [1]: 15.3 nM; Ki [2]: 18 nM; IC50 [3]: 1600 nM
2	45	CC1CCCCN1CCCNC(=O)c1ccc(Nc2nc(N)c(C(=O)c3c(F)cccc3F)s2)cc1 (stereo not shown) [Example G303]	18	72	–
–	–	N#Cc1cccc(NC(=O)c2ccc(Nc3nc(N)c(C(=O)c4c(F)cccc4F)s3)cc2)c1 [Example G60]	–	–	CDK2 % Inhibition at 0.03 μM ([1]; at 0.03 μM): 12%; CDK4 % Inhibition at 0.03 μM ([2]; at 0.03 μM): 18%; HCT-116 % Inhibition at 0.25 μM ([3]; HCT-116, at 0.25 μM): 66%
−20	0	C=CCN(CC=C)C(=O)c1ccc(Nc2nc(N)c(C(=O)c3c(F)cccc3F)s2)cc1 [Example G272]	10	47	–
–	–	CCCCN(CCO)C(=O)c1ccc(Nc2nc(N)c(C(=O)c3c(F)cccc3F)s2)cc1 [Example G4]	–	–	CDK2 % Inhibition at 0.03 μM ([1]; at 0.03 μM): −7%; CDK4 % Inhibition at 0.03 μM ([2]; at 0.03 μM): 4%; HCT-116 % Inhibition at 0.25 μM ([3]; HCT-116, at 0.25 μM): 53%
–	–	CC(C)c1ccc(NC(=O)c2ccc(Nc3nc(N)c(C(=O)c4c(F)cccc4F)s3)cc2)cc1 [Example G69]	–	–	CDK2 % Inhibition at 0.03 μM ([1]; at 0.03 μM): 7%; CDK4 % Inhibition at 0.03 μM ([2]; at 0.03 μM): 3%; HCT-116 % Inhibition at 0.25 μM ([3]; HCT-116, at 0.25 μM): 70%
28	26	Nc1nc(Nc2ccc(C(=O)NCc3cccc(Cl)c3)cc2)sc1C(=O)c1c(F)cccc1F [Example G324]	5	60	–
–	–	Nc1nc(Nc2ccc(C(=O)Nc3ccc(CCO)cc3)cc2)sc1C(=O)c1c(F)cccc1F [Example A24, 4-[4-Amino-5-(2,6-difluoro-benzoyl)-thiazol-2-ylamino]-N-[4-(2-hydroxy-ethyl)-phenyl]-benzamide]	–	–	Ki [1]: 100 nM; Ki [2]: 94 nM; IC50 [3]: 160 nM
–	–	Nc1nc(Nc2ccc(C(=O)N3CCOCC3)cc2)sc1C(=O)c1c(F)cccc1F [Example G10]	–	–	CDK2 % Inhibition at 0.03 μM ([1]; at 0.03 μM): −4%; CDK4 % Inhibition at 0.03 μM ([2]; at 0.03 μM): −2%; HCT-116 % Inhibition at 0.25 μM ([3]; HCT-116, at 0.25 μM): 51%
–	–	Nc1nc(Nc2ccc(C(=O)Nc3ccc4c(c3)OCO4)cc2)sc1C(=O)c1c(F)cccc1F [Example G52]	–	–	CDK2 % Inhibition at 0.03 μM ([1]; at 0.03 μM): 10%; CDK4 % Inhibition at 0.03 μM ([2]; at 0.03 μM): 5%; HCT-116 % Inhibition at 0.25 μM ([3]; HCT-116, at 0.25 μM): 65%

— patent US6720346B2, “Thiazole benzamide derivatives and pharmaceutical compositions for inhibiting cell proliferation” (Agouron Pharmaceuticals, Inc., priority 2001, dated 2004)
